Assay results: patent US5753516A, “Screening method for ligands of the EBI-1 receptor” (priority 1995, dated 1998)

What was measured:
Jurkat cells [1] = tested on: Jurkat cells
human T cells [2] = settings: Heagy et al., 1990; cited from earlier work
NALM 6 cells = experiment: Migration (chemotaxis) of NALM 6 pre-B ALL cells; assay type: cell-based, human; settings: for cell migration (cell counts): NALM 6, peptide 100 nM, spontaneous locomotion 2190; for concentration inducing migration: NALM 6 and LAZ 221; for effect on migration of pre-B ALL cells: NALM 6 and LAZ 221 cells
LAZ 388 cells = experiment: Migration (chemotaxis) of LAZ 388 EBV-transformed B cells; assay type: cell-based, human; settings: LAZ 388, peptide 100 nM; spontaneous locomotion 1938
LAZ 221 cells = experiment: Migration (chemotaxis) of LAZ 221 pre-B ALL cells; assay type: cell-based, human; settings: LAZ 221, peptide 100 nM; spontaneous locomotion 1886
EBI1 = target: T1, EBI1 (Homo sapiens, UniProt P32248)
T1 sequence (P32248 25-378): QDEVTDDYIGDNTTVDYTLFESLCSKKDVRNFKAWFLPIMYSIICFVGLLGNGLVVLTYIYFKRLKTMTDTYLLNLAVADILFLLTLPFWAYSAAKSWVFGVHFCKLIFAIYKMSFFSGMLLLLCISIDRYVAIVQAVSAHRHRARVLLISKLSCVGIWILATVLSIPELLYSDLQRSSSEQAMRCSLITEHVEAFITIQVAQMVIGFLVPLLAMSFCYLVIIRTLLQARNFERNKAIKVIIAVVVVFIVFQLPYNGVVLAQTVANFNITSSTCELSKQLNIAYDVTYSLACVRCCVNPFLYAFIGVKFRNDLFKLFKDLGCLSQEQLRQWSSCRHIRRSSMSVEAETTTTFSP

COS (Vector Control) = experiment: cAMP accumulation in COS cells (vector control); assay type: cell-based, monkey; settings: COS (Vector Control); MET-ENK 0.01 nM, naloxone 10 μM, forskolin 0.1 μM; controls 40.2 and 38.8
human T cells [3] = experiment: Migration of human peripheral blood T cells; assay type: cell-based
leukocytes = settings: Lu et al., 1960; cited from earlier work
[4] = tested on: lymphocytes and macrophages; settings: animals; cited from earlier work
Jurkat cells [5] = experiment: [Ca^2+ ]i response of Jurkat cells (Indo-1, flow cytometry); assay type: cell-based, human
Procedure: FIG. 14, Panel A and B. Methionine enkephalin and opiate receptor agonists selective for […] stimulate transmembrane signaling in Jurkat cells. Cells were labeled with Indo-1, washed twice in serum-free medium and held at 4° C. until analyzed. Indo-1 fluorescence was measured using flow cytometry as previously described (Heagy et al., 1992; Ledbetter et al., 1987; Chang et al., 1989; Rabinovitch et al., 1986). The fluorescence for nonstimulated cells (measured in medium, alone) was arbitrarily set at 1.0. Data are presented as per cent increase in the response [(r-baseline) x 100%]. Baseline [Ca^2+ ]i value measured for Jurkat cells (n=4) was 80±40 nM. Baseline Panel A, Jurkat cell response to MET-ENK (0.1 nM, 10 nM and 1 μM) and to the d- selective agonist Dermenkephalin (10 nM). Panel B, Jurkat cell response to the d- selective agonist (D-Pen ^2,5, p Cl-Phe^4)-ENK (0.1 nM. 10 nM. 1 μM).
The inventors (Heagy et al., 1992) have previously shown that when applied to NALM 6 cells the κ-1 agonist U69,953 stimulates a rapid increase in [Ca^2+ ]i. […] In order to determine whether the sites the inventors have identified using the δ-selective agonists also elicit Ca^2+ responses the inventors measured the effects of opioid peptides and δ-selective agonists on the calcium response. […] These studies provide evidence that Jurkat cells have functional δ opiate receptor sites which stimulate transmembrane signaling via rapid increases in [Ca^2+ ]i.

[6] = target: EBI1, novel lymphocyte R7G opioid binding protein (human); experiment: radioligand filtration assay on membranes of EBI1-transfected COS cells; nonspecific binding with 50 µM naloxone
[7] = target: Jurkat cells (T cell leukemia cell line), enkephalin/opiate binding sites not defined as a molecule; experiment: flow cytometry of MET-ENK-FITC on Jurkat cells, two-site model, low affinity site
[8] = target: NALM 6 cells (pre-B acute lymphoblastic leukemia cell line), enkephalin/opiate binding sites not defined as a molecule; experiment: flow cytometry of MET-ENK-FITC on NALM 6 cells, two-site model, low affinity site
[9] = target: NALM 6 cells (pre-B acute lymphoblastic leukemia cell line), enkephalin/opiate binding sites not defined as a molecule; experiment: flow cytometry of MET-ENK-FITC on NALM 6 cells, two-site model, high affinity site
[10] = target: Jurkat cells (T cell leukemia cell line), enkephalin/opiate binding sites not defined as a molecule; experiment: flow cytometry of MET-ENK-FITC on Jurkat cells, two-site model, high affinity site

Compound: CC(C)C[C@@H](NC(=O)[C@H](Cc1ccccc1)NC(=O)CNC(=O)[C@@H](C)NC(=O)[C@@H](N)Cc1ccc(O)cc1)C(=O)O [DADLE, [D-Ala^2,D-Leu5]-enkephalin]
- specific binding, % of total (Jurkat cells [1]): 50-60%
- human T cell migration (human T cells [2]): potent stimulants for the migration of isolated human T cells
- cell migration (cell counts) (NALM 6 cells): 6240 cell counts
- concentration inducing migration (NALM 6 cells): ≤ 10^-10 M
- effect on migration of pre-B ALL cells (NALM 6 cells): enhanced, albeit modestly, the migration of NALM 6 and LAZ 221 cells
- cell migration (cell counts) (LAZ 388 cells): 2283 cell counts
- cell migration (cell counts) (LAZ 221 cells): 4405 cell counts

Compound: C[C@@H](NC(=O)[C@@H](N)Cc1ccc(O)cc1)C(=O)NCC(=O)N(C)[C@@H](Cc1ccccc1)C(=O)NCCO [DAMGO, [D-Ala^2, Me-Phe^4, Gly(ol)^5]-enkephalin]
- human T cell migration (human T cells [2]): potent stimulants for the migration of isolated human T cells
- cell migration (cell counts) (NALM 6 cells): 5070 cell counts
- concentration inducing migration (NALM 6 cells): ≤ 10^-10 M
- effect on migration of pre-B ALL cells (NALM 6 cells): enhanced, albeit modestly, the migration of NALM 6 and LAZ 221 cells
- cell migration (cell counts) (LAZ 388 cells): 2043 cell counts
- cell migration (cell counts) (LAZ 221 cells): 4602 cell counts

Compound: CSCC[C@H](NC=O)C(=O)N[C@@H](CC(C)C)C(=O)N[C@@H](Cc1ccccc1)C(=O)O [FMLP]
- cell migration (cell counts) (NALM 6 cells): 3198 cell counts
- effect on migration of pre-B ALL cells (NALM 6 cells): had no effect on the migration of the pre-B ALL cells
- cell migration (cell counts) (LAZ 388 cells): 1914 cell counts
- cell migration (cell counts) (LAZ 221 cells): 2906 cell counts

Compound: C=C[C@@]1(C)CC(=O)[C@]2(O)[C@@]3(C)[C@@H](O)CCC(C)(C)[C@@H]3[C@H](O)[C@H](OC(C)=O)[C@@]2(C)O1 [Forskolin]
- cAMP (EBI1): 234.8 fmoles/cell × 10^3
- cAMP (COS (Vector Control)): 130.5 fmoles/cell × 10^3

Compound: CC(C)C[C@H](NC(=O)[C@H](Cc1ccccc1)NC(=O)CNC(=O)CNC(=O)[C@@H](N)Cc1ccc(O)cc1)C(=O)O [LEU-ENK]
- human lymphocyte / T cell migration (human T cells [3]): stimulate human lymphocyte migration
- lowest concentration at which T cell migration was detectable (human T cells [3]; human peripheral blood T cells): 0.1 pM

Compound: CN1CC[C@]23c4c5ccc(O)c4O[C@H]2[C@@H](O)C=C[C@H]3[C@H]1C5 [morphine]
- leukocyte changes in rabbits (leukocytes): caused a leukocytosis in parallel with a depletion of lymphocyte blasts and other hematopoietic precursors in the bone marrow
- lymphocyte trafficking in vivo [4]: enhance lymphocyte trafficking

Compound: (D-Pen^2,5, p-Cl-Phe^4)-ENK
- [Ca^2+ ]i response (Jurkat cells [5]): stimulated the Ca^2+ response
- concentration eliciting [Ca^2+ ]i response (Jurkat cells [5]): 10^-8 to 10^-6 M

Compound: DPDPE ([D-Pen2,5]enkephalin), delta-selective opiate receptor agonist (peptide)
- Kd [6]: 0.2 nM

Compound: fluorescein derivative of methionine enkephalin (MET-ENK-FITC) (peptide)
- Kd [7]: 181 nM
- Kd [8]: 318 nM
- Kd [9]: 1.01 nM
- Kd [10]: 1.36 nM
